In one assay the target is T1, Ras farnesyl transferase (Homo sapiens, UniProt P49354+P49356).
T1 construct: made in house
Put plainly: Ras farnesyl transferase inhibiting activity (filter-binding, tritium-farnesylpyrophosphate, Ras-CVLS substrate). In kind it is biochemical. The conditions noted are these: recombinant Ras farnesyl transferase, 30 minutes at 37° C., read-out: Ftase IC50. The protocol: The enzyme reaction was performed in 50 μl of 50 mM Sodium HEPES buffer solution containing 25 mmol of potassium chloride. 25 mmol of magnesium chloride, 10 mmol of DTT and 50 μmol of zinc chloride. 1.5 μmol of Ras substrate protein, 0.15 μmol of tritium-farnesylpyrophosphate and 4.5 nmol of farnesyl transferase were used.
More specifically, in the initial step, farnesyl transferase was added to the above buffer solution, reaction was maintained for 30 minutes at 37° C. and then the reaction was stopped by adding 1 ml of ethanol solution containing 1M HCl. The formed precipitates were adsorbed to GF/B filter using Hopper harvestor(Hopper #225V) for filter-binding, washed with ethanol, and then radioactivity of the dried filter was measured using LKB β counter. Enzyme titer was measured in the unsaturated state of substrate where the concentrations of Ras substrate protein and farnesyl transferase have quantitative relationship. Enzyme inhibiting activity was measured using less than 5% of total reaction solution of the compound according to the present invention dissolved in dimethylsulfoxide(DMSO) solution as a reagent. Enzyme inhibiting activity was represented by percentage of the amount of the farnesyl incorporated with the reagent to that without the reagent.

For assay [1], the system named is intracellular Ras farnesyl transferase, Rat2 cell line. Put plainly: Intracellular Ras farnesyl transferase inhibiting activity in transformed Rat2 cells (35S-methionine labelling, Y13-259 immunoprecipitation, SDS-PAGE). In kind it is cell-based. The note with it: Rattus norvegicus; transformed Rat2 fibroblast cell line; concentration inhibiting 50% of farnesyl binding of Ras protein; read-out: Ftase CIC50. As to the method:
In the present experiment, Rat2 cell line which expresses C-Harvey-Ras protein having transforming activity and Rat2 cell line(Korean patent application No. 97-14409) which is transformed with fused protein of H-Ras substituted with polybasic lysine domain at C-terminus of K-Ras were used. The experiment was performed by the modified Declue's method(Declue. J. E. et al., Cancer Research, 1991. 51, 712). Hereinafter, the experimental method will be described in more detail.
3×10^5 cells of transformed Rat2 fibroblast cell line were sprayed on 60 mm cell cultivation dish and cultivated for 48 hours in a cell incubator at 37° C. and after 50% or more of density was reached, it was treated with a reagent. The compound according to the present invention dissolved in dimethylsulfoxide(DMSO) was used as the reagent. 1% of dimethylsulfoxide was used in both control and experimental groups. After 4 hours from the treatment of the reagent, methionine labeled with 150 μCi of radioactive isotope, ^35S per 1 ml of medium, was added and after cultivating for 20 hours, the cells were washed with physiological saline water. The cells were lysed using 1 ml of cool cell lysis buffer solution(50 mM of Sodium Herpiss buffer solution containing 5 mmol of magnesium chloride. 1 mmol of DTT, 1% NP 40, 1 mmol of EDTA, 1 mmol of PMSF, 2 μmol of leupeptin, 2 μmol of pepstatin A and 2 μmol of antipain) and the supernatant was obtained by high-velocity centrifugation of 12,000 g×5 minutes. The amount of the labeled radioisotope of the supernatent was measured and standardized to obtain a quantitative result in immunoprecipitation reaction and then. Y13-259, monoclonal antiboby specifically binding to Ras protein(Furth, M. E. et al., J. Virol, 1982, 43, 294) was added and reacted for 15 hours at 4° C. Protein A bound to goat anti-murine Immunoglobulin antibody-agarose suspension was added to the solution and reacted for 1 hour at 4° C. and then, to remove unspecific binding product, immunoprecipitates were washed with buffer solution(50 mM Tris chloride buffer solution containing 50 mmol of sodium chloride, 0.5% of sodium dioxycolate, 0.5% of NP 40 and 0.1% of SDS). The precipitates were boiled in reagent buffer solution for electrophoresis and then, electrophoresis was performed using 13.5% of SDS polyacrylamide gel. After electrophoresis, the gel was fixed and dried. Then, the gel was exposed to X-ray film, developed and printed. From the result of the experiment, intensities of band of protein with and without farnesyl of Ras protein were measured, and the concentration of reagent inhibiting 50% of farnesyl binding was defined as CIC50, an intracellular Ras farnesyl transferase inhibiting activity.

The target in assay [2] is T2, Geranylgeranyl transferase (Bos taurus, UniProt P29702+Q5EAD5).
T2 construct: Geranylgeranyl transferase was purified from bovine brain; from tissue; host or cells: bovine brain
Put plainly: Geranylgeranyl transferase inhibiting activity (geranylgeranyl pyrophosphate, Ras-CVIL substrate). Format: biochemical. The note with it: geranylgeranyl transferase purified from bovine brain, read-out: GGtase IC50. As to the method:
To evaluate the selective enzyme inhibiting activity of the compound according to the present invention, inhibiting activity on geranylgeranyl transferase was measured. Geranylgeranyl transferase was purified from bovine brain with the method modified from Schber's method(Schber et al., J. Biol. Chem. 1990, 265, 14701). and substantially the same experiment as that of farnesyl transferase was performed using geranylgeranyl pyrophosphate and Ras-CVIL substrate protein under the similar condition to farnesyl transferase reaction.

Take `COC(=O)C(CCSC)NC(=O)CN1C(=O)N(CCCc2c[nH]cn2)C(=O)C1(C)c1cccc2ccccc12` (stereo not drawn) [Compound 1, 2-(2-{3-[3-(1H-imidazol-4-yl)-propyl]-5-methyl-5-naphthalen-1-yl-2,4-dioxo-imidazolidin-1-yl}-acetylamino)-4-methylsulfanyl-butyric acid methyl ester]: the IC50 was 0.5 µM on Ras farnesyl transferase, 1 µM in assay [1] and greater than 10 µM in assay [2].
The corresponding values for `CSCCC(NC(=O)CN1C(=O)N(CCCc2c[nH]cn2)C(=O)C1(C)c1cccc2ccccc12)C(=O)O` (stereo not drawn) [Compound 2, 2-(2-{3-[3-(1H-imidazol-4-yl)-propyl]-5-methyl-5-naphthalen-1-yl-2,4-dioxo-imidazolidin-1-yl}-acetylamino)-4-methylsulfanyl-butyric acid] are 0.0008 µM, 5 µM and 3.4 µM.
The like results for `COC(=O)C(CCSC)NC(=O)CN1C(=O)N(CCc2c[nH]cn2)C(=O)C1(C)c1cccc2ccccc12` (stereo not drawn) [Compound 3, 2-(2-{3-[2-(1H-imidazol-4-yl)-ethyl]-5-methyl-5-naphthalen-1-yl-2,4-dioxo-imidazolidin-1-yl}-acetylamino)-4-methylsulfanyl-butyric acid methyl ester] were, in that order, 2.5 µM, 5 µM and greater than 10 µM.
The like results for `CSCCC(NC(=O)CN1C(=O)N(CCc2c[nH]cn2)C(=O)C1(C)c1cccc2ccccc12)C(=O)O` (stereo not drawn) [Compound 4, 2-(2-{3-[2-(1H-imidazol-4-yl)-ethyl]-5-methyl-5-naphthalen-1-yl-2,4-dioxo-imidazolidin-1-yl}-acetylamino)-4-methylsulfanyl-butyric acid] were, in that order, 0.0048 µM, 10 µM and 0.7 µM.
Regarding `COC(=O)C(CCSC)NC(=O)CN1C(=O)N(Cc2cnc[nH]2)C(=O)C1(C)c1cccc2ccccc12` (stereo not drawn) [Compound 5, 2-{2-[3-(3H-imidazol-4-yl-methyl)-5-methyl-5-naphthaten-1-yl-2,4-dioxo-imidazolidin-1-yl]-acetylamino}-4-methylsulfanyl-butyric acid methyl ester], the values for the IC50 (on Ras farnesyl transferase; in assay [1]; in assay [2]) were 190 µM, 10 µM and greater than 10 µM, respectively.
The corresponding values for `CSCCC(NC(=O)CN1C(=O)N(Cc2cnc[nH]2)C(=O)C1(C)c1cccc2ccccc12)C(=O)O` (stereo not drawn) [Compound 6, 2-{2-[3-(3H-imidazol-4-yl-methyl)-5-methyl-5-naphthalen-1-yl-2,4-dioxo-imidazolidin-1-yl]-acetylamino}-4-methylsulfanyl-butyric acid] are 0.061 µM, 7.3 µM and greater than 10 µM.
Turning to `COC(=O)C(CCSC)NC(=O)CN1C(=O)N(Cc2cncn2Cc2ccc(C#N)cc2)C(=O)C1(C)c1cccc2ccccc12` (stereo not drawn) [Compound 7, 2-(2-{3-[3-(4-cyano-benzyl)-imidazol-4-yl-methyl]-5-methyl-5-naphthalen-1-yl-2,4-dioxo-imidazolidin-1-yl}-acetylamino)-4-methylsulfanyl-butyric acid methyl ester], the IC50 at Ras farnesyl transferase is 0.18 µM; in assay [1], less than 20 µM; in assay [2], greater than 10 µM.
The corresponding values for `CSCCC(NC(=O)CN1C(=O)N(Cc2cncn2Cc2ccc(C#N)cc2)C(=O)C1(C)c1cccc2ccccc12)C(=O)O` (stereo not drawn) [Compound 8, 2-(2-{3-[3-(4-cyano-benzyl)-imidazol-4-yl-methyl]-5-methyl-5-naphthalen-1-yl-2,4-dioxo-imidazolidin-1-yl}-acetylamino)-4-methylsulfanyl-butyric acid] are 0.014 µM, less than 20 µM and greater than 10 µM.
Turning to `CC1(c2cccc3ccccc23)C(=O)N(CCCc2cnc[nH]2)C(=O)N1CC(=O)NC(Cc1cccs1)C(=O)O` (stereo not drawn) [Compound 9, 2-(2-{3-[3-(3H-imidazol-4-yl)-propyl]-5-methyl-5-naphthalen-1-yl-2,4-dioxo-imidazolidin-1-yl}-acetamino)-3-thiophen-2-yl-propionic acid], the IC50 is 0.015 µM at Ras farnesyl transferase, less than 1 µM in assay [1] and 80 µM in assay [2].
